Laboratory results as given in patent US6150361A, “Triazineone compounds for treating diseases due to sarcosystis, neospora and toxoplasma” (Bayer Corporation, priority 1998, dated 2000).
Several values for one entry are separate records, joined by “and”; a condition that tells them apart may be missing. Identical values can stand only once.

Key:
Type in all cases: in vivo
[1] = Pharmacokinetics of a single oral dose of Toltrazuril in horses (blood levels); conditions: single oral dose of Toltrazuril 10 mg/kg; for concentration at 24 h / Concentration in mg/l of Blood, 24 hours: 24 h post treatment; for concentration at 24 h: read-out: Concentration in mg/l of Blood, 24 hours; for concentration at 48 h / Concentration in mg/l of Blood, 48 hours: 48 h post treatment; for concentration at 48 h: read-out: Concentration in mg/l of Blood, 48 hours; for concentration at 72 h / Concentration in mg/l of Blood, 72 hours: 72 h post treatment; for concentration at 72 h: read-out: Concentration in mg/l of Blood, 72 hours; for Concentration in mg/l of Blood, 24 hours: 1440 min; for Concentration in mg/l of Blood, 48 hours: 2880 min; for Concentration in mg/l of Blood, 72 hours: 4320 min
Protocol: A pharmacokinetic study was conducted in horses comparing blood levels of Toltrazuril, Ponazuril and Toltrazuril Sulfoxide at various times post a single dose of Toltrazuril. All horses received a single dose of 10 mg/kg, which was administered orally as a suspension. Blood samples were drawn at the time of treatment (0) and at 0.25, 0.5, 1, 2, 4, 6, 12, 24, 48 and 72 hours post treatment. […] This was an indication that Ponazuril, alone, would produce acceptable blood levels that are envisioned to pass the blood-brain barrier, a characteristic required to treat neurological diseases such as those caused by Sarcocystis neurona, Toxoplasma gondii, Neospora caninum and Neospora

[2] = Passing of the blood-brain barrier in horses; conditions: after oral Toltrazuril daily for 10 days
Protocol: (§1) This experiment was conducted in order to determine whether triazineones such as Toltrazuril can pass the blood-brain barrier. Normal horses were divided into three groups of three horses per group. Group 1 horses received Toltrazuril administered orally as a 5% suspension at a dose level of 2.5 mg/Kg. Group 2 horses received Toltrazuril administered orally as a 5% suspension at a dose level of 5.0 mg/Kg. Group 3 horses received Toltrazuril administered orally as a 5% suspension at a dose level of 7.5 mg/Kg. The dosing was repeated daily for 10 days. Blood samples were drawn at 48, 96 and 240 hours and the concentration of Toltrazuril, Toltrazuril sulfoxide and Ponazuril in the serum was measured. Ten days after the start of the treatment (Day 10), a sample of cerebral spinal fluid was removed from each horse and the concentrations of Toltrazuril, Toltrazuril Sulfoxide and Ponazuril were again measured in these samples. The concentrations of Toltrazuril, Toltrazuril Sulfoxide and Ponazuril in the serum and cerebral spinal fluid are reported in TABLES 5a and 5b.

[3] = Drug levels in cerebral spinal fluid after repeated doses of Toltrazuril in horses; design: Drug level in Cerebral Spinal Fluid, Day 10 / AVG drug level in Cerebral Spinal Fluid, Day 10: unit not given here; conditions: Day 10; for AVG drug level in Cerebral Spinal Fluid, Day 10: group average; for Drug level in Cerebral Spinal Fluid, Day 10: individual horse
Protocol: as §1

[4] = Drug levels in serum after repeated doses of Toltrazuril in horses; design: unit not given here; conditions: for AVG drug level in serum, 48 Hrs / AVG drug level in serum, 96 Hrs / AVG drug level in serum, 240 Hrs: group average; for Drug level in serum, 48 Hrs / Drug level in serum, 96 Hrs / Drug level in serum, 240 Hrs: individual horse
Protocol: as §1

[5] = horse, blood, po, 10 mg/kg, suspension, one value per horse (A-F)
[6] = suspension, one value per horse (A-F), 10 mg/kg
[7] = Toltrazuril 2.5 mg/Kg oral daily for 10 days
[8] = Toltrazuril 5.0 mg/Kg oral daily for 10 days
[9] = Toltrazuril 7.5 mg/Kg oral daily for 10 days

Cc1cc(-n2c(=O)[nH]c(=O)n(C)c2=O)ccc1Oc1ccc([S+]([O-])C(F)(F)F)cc1 (centres unmarked) [Toltrazuril Sulfoxide]
concentration at 0.25 h ([1]; horse, blood, po, 10 mg/kg, suspension, 0.25 h post treatment, one value per horse (A-F), read-out: Concentration in mg/l of Blood, 0.25 hours): < 0.01 mg/L
concentration at 24 h [1, 5]: 0.407 mg/L
concentration at 48 h [1, 5]: 0.732 mg/L
concentration at 72 h [1, 5]: 0.592 mg/L
levels in serum/bloodstream of horses receiving Toltrazuril (in words) [1]: significant levels
Concentration in mg/l of Blood, 24 hours [1, 6]: 0.566 mg/L and 0.461 mg/L and 0.481 mg/L and 0.633 mg/L
Concentration in mg/l of Blood, 48 hours [1, 6]: 0.454 mg/L and 0.477 mg/L and 0.749 mg/L and 0.741 mg/L and 0.642 mg/L
Concentration in mg/l of Blood, 72 hours [1, 6]: 0.346 mg/L and 0.377 mg/L

Cc1cc(-n2c(=O)[nH]c(=O)n(C)c2=O)ccc1Oc1ccc(SC(F)(F)F)cc1 [Toltrazuril, reference compound]
concentration at 24 h [1, 5]: 6.43 mg/L
concentration at 48 h [1, 5]: 7.61 mg/L
concentration at 72 h [1, 5]: 6.65 mg/L
Concentration in mg/l of Blood, 0.25 hours ([1]; suspension, 0.25 h post treatment, one value per horse (A-F), 10 mg/kg, 15 min): 0.061 mg/L
Concentration in mg/l of Blood, 1 hour ([1]; suspension, 1 h post treatment, one value per horse (A-F), 10 mg/kg, 60 min): 3.286 mg/L
Concentration in mg/l of Blood, 24 hours [1, 6]: 11.690 mg/L and 7.236 mg/L and 8.694 mg/L and 10.224 mg/L
Concentration in mg/l of Blood, 48 hours [1, 6]: 6.677 mg/L and 9.758 mg/L and 8.234 mg/L and 6.869 mg/L and 7.096 mg/L
Concentration in mg/l of Blood, 72 hours [1, 6]: 5.058 mg/L and 7.633 mg/L
crossing of the blood-brain barrier [2]: effectively cross the blood-brain barrier
AVG drug level in Cerebral Spinal Fluid, Day 10 [3, 7]: 0.15
Drug level in Cerebral Spinal Fluid, Day 10 [3, 7]: 0.23 and 0.06 and 0.15
AVG drug level in Cerebral Spinal Fluid, Day 10 [3, 8]: 0.19
Drug level in Cerebral Spinal Fluid, Day 10 [3, 8]: 0.19 and 0.12 and 0.26
AVG drug level in Cerebral Spinal Fluid, Day 10 [3, 9]: 0.39
Drug level in Cerebral Spinal Fluid, Day 10 [3, 9]: 0.50 and 0.21 and 0.45
AVG drug level in serum, 48 Hrs [4, 7]: 6.70
AVG drug level in serum, 96 Hrs [4, 7]: 10.68
AVG drug level in serum, 240 Hrs [4, 7]: 13.37
Drug level in serum, 48 Hrs [4, 7]: 4.49 and 4.0 and 11.6
Drug level in serum, 96 Hrs [4, 7]: 9.85 and 9.09 and 13.1
Drug level in serum, 240 Hrs [4, 7]: 15.29 and 9.60 and 15.21
AVG drug level in serum, 48 Hrs [4, 8]: 8.57
AVG drug level in serum, 96 Hrs [4, 8]: 15.46
AVG drug level in serum, 240 Hrs [4, 8]: 19.68
Drug level in serum, 48 Hrs [4, 8]: 7.28 and 9.18 and 9.26
Drug level in serum, 96 Hrs [4, 8]: 14.17 and 14.03 and 18.19
Drug level in serum, 240 Hrs [4, 8]: 24.92 and 16.54 and 17.59
AVG drug level in serum, 48 Hrs [4, 9]: 10.18
AVG drug level in serum, 96 Hrs [4, 9]: 21.92
AVG drug level in serum, 240 Hrs [4, 9]: 25.95
Drug level in serum, 48 Hrs [4, 9]: 9.90 and 10.46
Drug level in serum, 96 Hrs [4, 9]: 27.74 and 19.55 and 18.47
Drug level in serum, 240 Hrs [4, 9]: 30.08 and 24.15 and 23.53
